A short description of one data set: in vitro. The following applies: human, hela cells, % viability.
`CCOC(=O)CC1=C(C(=O)OCC)C(c2ccccc2C(F)(F)F)C(C#N)=C(N)O1` (stereo not shown) [CBK262710]: the viability (usually a read-out of living cells in per cent, often relative to untreated cells) at 28.5 h, 10 µM amounted to 105%.

Consider `CS(=O)(=O)N(Cc1ccccc1)c1ccc(C(=O)N/N=C/c2ccccc2C(F)(F)F)cc1` [CBK262711], for which the viability at 28.5 h, 10 µM is 88%. Same read-out and setting: for `O=C(N/N=C/c1cccnc1)C1CCCN(S(=O)(=O)c2ccccc2)C1` (stereo not shown) [CBK262712] the value was 91.5%. Still for that read-out and setting: then `Cc1cc(C)c(OCCNC(C)(C)C)c(Cl)c1` [CBK262713C], with 93.2%; and `O=C(O)CC(Cc1ccc(Br)cc1)C(=O)Nc1ccccc1` (stereo not shown) [CBK262714], with 96.2%. For `COc1cccc(OC)c1OCCCN1CCCCC1` [CBK262719], the viability at 28.5 h, 10 µM is 97.7%. Turning to `CC(=O)Nc1ccc(/C(C)=N/NC(=O)c2ccc(CN3CCOCC3)cc2)cc1` [CBK262720], the viability at 28.5 h, 10 µM stood at 91.7%.

`O=C(N/N=C/c1cc2c(cc1Br)OCO2)c1ccc(CN2CCOCC2)cc1` [CBK262721]: the viability at 28.5 h, 10 µM was 90.1%.

On to `N#Cc1c(NC(=O)c2ccc(C(=O)O)cc2C(=O)O)sc2c1CCCC2` [CBK262722], for which the viability at 28.5 h, 10 µM worked out at 105%.

Take `O=C(CSc1ccc(Cl)cc1)Nc1ccc(S(=O)(=O)N2CCOCC2)cc1` [CBK262723]: the viability at 28.5 h, 10 µM stood at 95%. Still for that read-out and setting: for `Cc1c(C(=O)O)cccc1N1C(=O)c2ccc([N+](=O)[O-])cc2C1=O` [CBK262724] the value was 99.9%. The same measure, in the same setting: for `Cc1[nH]nc(Nc2cccc(C(=O)O)c2)c1[N+](=O)[O-]` [CBK262725] the value was 96.2%. On to `OC(CN1CCN(C(c2ccccc2)c2ccccc2)CC1)Cn1c2ccccc2c2ccccc21` (stereo not shown) [CBK262730], for which the viability at 28.5 h, 10 µM was 99.6%. Still for that read-out and setting: for `Cc1ccc2nc(Cl)c(/C=N/NC(=O)CN3CCOCC3)cc2c1` [CBK262731] the value was 91.2%.

With `C=CCn1c(SCC(=O)O)nnc1-c1ccc([N+](=O)[O-])cc1` [CBK262736], the viability at 28.5 h, 10 µM was determined as 88.6%. Still for that read-out and setting: for `C=C(C)Cn1c(SCC(=O)O)nnc1-c1ccccc1` [CBK262737] the value was 91.9%; for `O=[N+]([O-])c1ccc2c(c1)C(N1CCOCC1)/C(=C/COc1ccc3ccccc3c1Br)O2` (stereo not shown) [CBK262738], 97.1%; for `O=[N+]([O-])c1ccc(O)c(C(C#Cc2ccccc2)N2CCOCC2)c1` (stereo not shown) [CBK262741], 93.2%. Still for that read-out and setting: for `CN1CCC(=NNC(=O)c2ccc(N(Cc3ccccc3)S(C)(=O)=O)cc2)CC1` [CBK262742] the value was 82.4%; for `CC(=O)Nc1cccc(/C(C)=N/NC(=O)c2ccc(CN3CCOCC3)cc2)c1` [CBK262746], 95.4%; for `Cc1ccc(C(=O)O)cc1N1C(=O)c2ccc(S(=O)(=O)c3ccc(C(=O)O)cc3)cc2C1=O` [CBK262747], 96.1%. On the same count and under the same terms, then `C/C(CCc1ccccc1)=N\NC(=O)c1ccc(CN2CCOCC2)cc1` [CBK262752], with 99.5%. For the compound `Clc1ccc(OC/C=C2\Oc3ccc(Cl)cc3C2N2CCOCC2)c(Cl)c1` (stereo not shown) [CBK262753], the viability at 28.5 h, 10 µM came to 94.5%. Take `CS(=O)(=O)N(Cc1ccccc1)c1ccc(C(=O)Nc2ccc(-c3ccccc3)cc2)cc1` [CBK262754]: the viability at 28.5 h, 10 µM amounted to 90.6%. The same measure, in the same setting: then `Cc1ccc(N2C(=O)/C(=C/c3ccc(O)c(O)c3)SC2=S)cc1C` [CBK262756], with 76.8%; and `CCOc1cc(/C=C2\SC(=S)N(NC(=O)c3cccnc3)C2=O)ccc1O` [CBK262759], with 105%. Still for that read-out and setting: for `O=C(O)c1ccc(S(=O)(=O)c2ccc3c(c2)C(=O)N(c2ccccc2-c2ccccc2)C3=O)cc1` [CBK262760] the value was 101%; for `O=C(CN1C(=O)c2ccccc2C1=O)Nc1cccc2ncccc12` [CBK262761], 84%. Still for that read-out and setting: then `Cc1nnc(SCC(=O)N/N=C/c2ccncc2)n1-c1ccccc1` [CBK262762], with 85.4%; and `CN1CCN(N/C=C2/C(=O)N(c3ccc([N+](=O)[O-])cc3)N=C2c2ccccc2)CC1` [CBK262763], with 89.6%. With `COc1ccccc1N1C(=O)CC(SC(=N)N/N=C(\C)c2ccc(O)cc2)C1=O` (stereo not shown) [CBK262766], the viability at 28.5 h, 10 µM worked out at 100%.

Regarding `Cc1nnc(SCC(=O)N/N=C/c2ccc(-c3ccc(Br)cc3)o2)n1-c1ccccc1` [CBK262769], the viability at 28.5 h, 10 µM came to 104%. Consider `O=C(N/N=C/c1ccccc1O)c1ccn(Cc2ccc(Cl)cc2)n1` [CBK262770], for which the viability at 28.5 h, 10 µM worked out at 91.3%. Take `O=C1NCC(c2ccccc2)C1C(=O)N/N=C\c1cc(O)ccc1[N+](=O)[O-]` (stereo not shown) [CBK262772]: the viability at 28.5 h, 10 µM worked out at 91.8%.

Turning to `O=C1c2ccc(Oc3ccc4c(c3)C(=O)N(c3cccnc3)C4=O)cc2C(=O)N1c1cccnc1` [CBK262773], the viability at 28.5 h, 10 µM was determined as 88.6%. The same measure, in the same setting: then `CN1CCN(c2nc(-c3ccccc3)cc(-c3ccc(Br)cc3)n2)CC1` [CBK262774], with 93.7%; and `O=C(CSc1nnc(-c2ccncc2)n1-c1ccccc1)N/N=C/c1c[nH]c2ccccc12` [CBK262776], with 90.5%.

Consider `O=C(Cc1ccccc1)N/N=C/c1cccc2cccnc12` [CBK262778], for which the viability at 28.5 h, 10 µM stood at 85.7%. Turning to `Cc1cc2nc(-c3cc(NC(=O)c4ccc(C)c([N+](=O)[O-])c4)ccc3O)oc2cc1C` [CBK262779], the viability at 28.5 h, 10 µM turned out to be 89.1%. Still for that read-out and setting: then `O=C(COc1ccccc1Cl)N/N=C/c1ccc(-c2ccccc2[N+](=O)[O-])o1` [CBK262782], with 112%. In the case of `O=C(c1cccc([N+](=O)[O-])c1)c1ccc2c(c1)C(=O)N(Cc1cccnc1)C2=O` [CBK262784], the viability at 28.5 h, 10 µM was 80.1%. On the same count and under the same terms, for `O=C(O)/C=C/C(=O)N(Cc1ccc2c(c1)OCO2)C1CC(=O)N(c2ccccc2)C1=O` (stereo not shown) [CBK262786] the value was 91.4%; for `COc1cc(NC(=O)c2ccc3c(c2)C(=O)N(c2ccccc2OC)C3=O)c(C(=O)O)cc1OC` [CBK262787], 95.1%; for `O=C(O)c1ccc(/C=N\NC(=O)C2COc3cc4ccccc4cc3O2)cc1` (stereo not shown) [CBK262792], 90.4%.

As for `O=C(CN1C(=O)c2ccccc2C1=O)NCc1ccc(C(=O)O)cc1` [CBK262795], the viability at 28.5 h, 10 µM was found to be 90.2%. On the same count and under the same terms, then `COc1cc(NS(=O)(=O)c2ccc(Nc3nc(-c4sc(N)nc4C)cs3)cc2)nc(OC)n1` [CBK262796], with 91.2%; and `Cc1ccc(S(=O)(=O)NC(C)(C)CN2CCN(C(c3ccccc3)c3ccccc3)CC2)cc1` [CBK262799], with 90%; and `O=C(O)c1cc(NC(=O)c2cccc(F)c2)cc(NC(=O)c2cccc(F)c2)c1` [CBK262800], with 90.6%. Same read-out and setting: then `O=C(O)CCCN1C(=O)/C(=C/c2ccccc2[N+](=O)[O-])SC1=S` [CBK262801], with 90.4%; and `CC(O)CNCCNc1c(Cl)cccc1[N+](=O)[O-]` (stereo not shown) [CBK262802C], with 98.8%; and `O=[N+]([O-])c1cc(S(=O)(=O)N2CCCCCC2)ccc1NCc1ccccc1` [CBK262804], with 88.3%. Consider `CC(CO)(CO)Nc1ccc(C(F)(F)F)cc1[N+](=O)[O-]` [CBK262806], for which the viability at 28.5 h, 10 µM came to 61.9%.

`Cc1ccc(-c2ccc(/C=N\NC(=O)C3C(=O)NCC3c3ccccc3)o2)cc1Cl` (stereo not shown) [CBK262808]: the viability at 28.5 h, 10 µM was found to be 98.7%. On the same count and under the same terms, then `O=C(Oc1ccc(/C=N/NC(=O)C2COc3ccccc3O2)cc1)c1cccnc1` (stereo not shown) [CBK262811], with 96.5%; and `COc1ccc(/C=N/NC(=O)CSc2nnc(C)n2-c2ccccc2)cc1` [CBK262812], with 114%. Still for that read-out and setting: for `CC(Oc1ccccc1)C(=O)Nc1cccc(-c2nnc(-c3ccccc3)o2)c1` (stereo not shown) [CBK262822] the value was 91.2%; for `O=C(O)c1ccc(S(=O)(=O)c2ccc3c(c2)C(=O)N(c2cc(C(=O)O)cc(C(=O)O)c2)C3=O)cc1` [CBK262824], 92.8%; for `C/C(=N\NC(=O)c1nc(-c2ccccc2)cc(-c2ccccc2)n1)c1cccnc1` [CBK262827], 90.2%.

For `O=C(CSc1nnc(-c2ccncc2)n1-c1ccccc1)N/N=C/c1ccco1` [CBK262828], the viability at 28.5 h, 10 µM worked out at 94.4%. Same read-out and setting: for `CCOc1cccc(N2C(=O)CC(N3CCN(c4ccccn4)CC3)C2=O)c1` (stereo not shown) [CBK262829] the value was 105%; for `O=C(O)c1ccc(CN2C(=O)c3ccc(C(=O)c4ccc(C(=O)O)cc4)cc3C2=O)cc1` [CBK262831], 102%. On the same count and under the same terms, for `CC1=CC(C)C(CNCCN2CCNCC2)C(C)C1` (stereo not shown) [CBK262832] the value was 90%; for `COc1ccc(N2C(=O)c3ccc(C(=O)Nc4ccccc4C(=O)O)cc3C2=O)cc1O` [CBK262833], 97.8%; for `O=C(O)CCCCCN1C(=O)/C(=C/c2ccc(O)cc2)SC1=S` [CBK262835], 87.6%. On the same count and under the same terms, for `Nc1ccc(-c2nc3cc(C(=O)c4ccc5[nH]c(-c6ccc(N)cc6)nc5c4)ccc3[nH]2)cc1` [CBK262848] the value was 99.7%; for `CN1CCN(CCC(=O)N/N=C/c2ccc(O)cc2O)CC1` [CBK262849], 94.2%; for `O=C(CSc1ncn[nH]1)N/N=C/c1cn(-c2ccccc2)nc1-c1ccccc1` [CBK262850], 101%.

Consider `O=C(O)CCCN1C(=O)/C(=C/c2ccc(O)c(O)c2)SC1=S` [CBK262852], for which the viability at 28.5 h, 10 µM amounted to 84.9%. Same read-out and setting: for `O=C(NC(C(=O)N/N=C/c1cccc(O)c1)c1n[nH]c(=O)c2ccccc12)c1ccccc1` (stereo not shown) [CBK262853] the value was 89%; for `Cc1cc2nc(-c3cc(NC(=O)c4cccc([N+](=O)[O-])c4)ccc3O)oc2cc1C` [CBK262855], 103%. Still for that read-out and setting: then `COC(=O)c1ccc(N2C(=O)CC(NCCc3ccc(S(N)(=O)=O)cc3)C2=O)cc1` (stereo not shown) [CBK262859], with 99.9%; and `Cc1ccc(S(=O)(=O)NCC(c2ccccc2)N2CCN(CCC#N)CC2)cc1` (stereo not shown) [CBK262865], with 97.4%.

The data set is the same for the next values; noted with them: human, hela cells, % viability, bulk resorufin, single well.
For `CN1C(=O)C(=CNCCN2CCN(C(=S)Nc3ccccc3)CC2)C(=O)N(C)C1=O` [CBK262858], the viability at 28.5 h, 10 µM stood at 97.5%.
